Results reported in patent publication US10450572B2, “Androgen receptor variant inhibitors and methods of using” (Regents of the University of Minnesota, priority 2016, dated 2019).
Entries after “also recorded” stand apart in the source; their conditions may differ. {Fluorescein} = fluorescein label

Experiments:
[1] = test system: AR-FL; test: AR subcellular fractionation and western blot; type: cell-based, human; conditions: 22Rv1-undup3 cells; 1 nM, 24 hours; FIG. 8
Description: For AR subcellular fractionation, 22Rv1-undup3 cells were seeded in RPMI medium supplemented with 10% CSS for 24 hours and treated with either ethanol (vehicle) or 1 nM mibolerone (synthetic androgen) for 24 hours. Cells were washed with 1×PBS, harvested in hypotonic buffer, and subjected to subcellular fractionation as described elsewhere (see, e.g., Chan et al., 2012, J. Biol. Chem., 287:19736-49). Lysates in 1× Laemmli buffer were loaded in equal volumes on either 7.5% or 4-15% polyacrylamide gels (Biorad TGX) and electrophoresed at 200v for 30 minutes.
Blots were incubated with antibodies specific to CPSF1 (Bethyl, A301-580, 1:1000), AR (Santa Cruz Santa Cruz Biotechnology N-20, 1:2000), extracellular signal-regulated kinase-2 (ERK-2; Santa Cruz Biotechnology D-2, 1:4000), and AR-V7 (Precision Antibodies, 1:1000). HRP-conjugated goat-anti-mouse (#sc 2005, lot#D1515), and goat-anti-rabbit (#sc 2004, lot#B1315) secondary antibodies were obtained from Santa Cruz and were used at 1:10000 dilutions. Blots were incubated in enhanced chemiluminescence substrate (WesternBright, Advansta #K12045-D50 or SuperSignal West Pico, Thermo #1859674) and exposed to X-ray film for chemiluminescence detection.

[2] = test system: AR-V2, AR-V5, AR-V7, and AR-V9 mRNA; test: AR-V mRNA expression in E43 cells; type: cell-based; conditions: E43 cells transfected with CE3 pAM; FIG. 3B
Description: (§1) E43 cells were cultured in RPMI-1640 and supplemented with 10% FBS and 500 μg/mL penicillin/streptomycin. For androgen blockade experiments, E43 cells were cultured in RPMI-1640 supplemented with 10% charcoal stripped FBS and 500 μg/mL penicillin/streptomycin. Transient transfections were performed using a BTX Square Wave electroporator. Transient transfection of E43 cells with the indicated concentration of CE3 pAM were carried out in RPMI-1640 supplemented with 10% FBS, and subsequently plated in appropriate culture medium. When appropriate, E43 cells were treated with 10 μM enzalutamide (MDV-3100, Selleck Chemicals) in indicated cell culture medium. E43 cells in cell culture medium were treated with vivo-CE3 pAM in 1X phosphate buffered saline at the indicated concentrations.

[3] = test system: AR-V7 mRNA; test: specificity test with morpholinos tiling the CE3 PAS: AR-V7 mRNA; type: cell-based, human; conditions: 22Rv1 cells; 10 μM morpholino, 24 hours after transfection; FIG. 19B
Description: (§2) GeneTools' design tool was used to design morpholinos targeting upstream and downstream regions of AR CE3. Sequences were as follows:
(§3) 22Rv1 cells were transfected with 10 μM control and morpholinos tiling upstream (us) and downstream (ds) of the CE3 PAS (us 100, us 50, CE3 pAM, ds 50, ds 150).
(§4) Total RNA from tumor tissue was purified using the Promega Reliaprep Tissue kit according to manufacturer instructions, including the on-column DNAse treatment. RNA was eluted in nuclease free water. Reverse transcription and quantitative PCR were performed as described in Example 2. Data were analyzed using the ΔΔCt method and normalized to actin-2 (internal control).

[4] = test system: 22Rv1 cells; test: crystal violet growth assay of 22Rv1 cells; type: cell-based, human; conditions: parental 22Rv1 cells transfected with 10 μM; androgen-deplete conditions; FIG. 11D
Description: (§5) 22Rv1 cells (CRL-2505) were obtained from ATCC (Manassas, Va., USA) and cultured according to ATCC protocol. LNCaP95 cells were cultured in phenol red free RMPI 1640 (Invitrogen) supplemented with 10% fetal bovine serum and 1× penicillin/streptomycin. VCaP cells (ATCC CRL-2876) were cultured in DMEM medium (Invitrogen) supplemented with 10% fetal bovine serum and 1× penicillin/streptomycin. ATCC authenticates human cell lines using short tandem repeat analysis. Cell lines were routinely monitored for mycoplasma infection by regularly evaluating aliquots of supernatants from cells in culture for mycoplasma contamination using a PCR-based method as described elsewhere (see, e.g., Uphoff et al., 2012, J. Biomed. Biotechnol., 2012:267678).
GeneTools' design tool was used to design a 25-mer consisting of the sequence 5′-[…]-3′ (SEQ ID NO:2) targeted to the CE3 PAS (CE3 pAM). As a control, a standard commercially available nontargeting control morpholino was used (GeneTools). […]
(§6) Electroporated 22Rv1 cells and sublines were seeded at 20,000 cells per well in 24 well dishes in RPMI 1640 supplemented with 10% charcoal-stripped FBS. […] Crystal violet staining assays were performed as described elsewhere (see, e.g., Li et al., 2013, Cancer Res., 73:483-9) and absorbance was measured at 560 nm. Significance was assessed by two tailed t-tests in GraphPad.

[5] = test system: E43 cells; test: crystal violet growth assay of E43 cells; type: cell-based; conditions: FIG. 3C; for cell growth (crystal violet staining): E43 cells
Description: as §1
20,000 E43 cells transfected with 10 μM CE3 pAM or control morpholino were plated in 24-well dishes in the indicated culture medium and subjected to the indicated drug treatments. Crystal violet assays were performed on cells on days 2, 4, 6, 8, 11, and 14. Briefly, cells were fixed in 1% glutaraldehyde in 1X PBS and stained with 0.5% crystal violet in distilled water. At the end of the timecourse, fixed and stained cells were subjected to treatment with Sorenson's buffer (6.1 ml of 0.1 M disodium citrate, 3.9 ml of 0.1N HCl, and 10 ml of 95% ethanol) to release dye. Absorbance was measured at 560 nm.

[6] = test system: AR mRNA; test: specificity test with morpholinos tiling the CE3 PAS: AR mRNA; type: cell-based, human; conditions: 22Rv1 cells; 10 μM morpholino, 24 hours after transfection; FIG. 19B
Description: as §2, §3, §4

[7] = test system: full-length AR (AR-FL); test: full-length AR expression in E43 cells; type: cell-based; conditions: E43 cells transfected with CE3 pAM; FIG. 3A
Description: as §1

[8] = test system: AR-V proteins; test: AR-V protein expression in E43 cells (western blot); type: cell-based; conditions: E43 cells transfected with CE3 pAM; FIG. 3A
Description: as §1

[9] = test system: 22Rv1-undup3 cells; test: crystal violet growth assay of 22Rv1-undup3 cells; type: cell-based, human; conditions: 22Rv1-undup3 cells transfected with 10 μM, FIG. 11D
Description: as §5
Cell/siRNA mixtures were electroporated in a 4-mm gap-width cuvette (BTX) with a BTX Square Wave Electroporator (22Rv1 and sublines: 350 V, 10 ms pulse, LNCaP95: 305 V, 10 ms pulse). Following a 15-minute recovery, cells were seeded in appropriate culture medium. […]
as §6

[10] = test system: AR-FL; test: AR-FL expression after morpholino transfection; type: cell-based, human; conditions: FIG. 11C
Description: as §5, with “2012:267678). […]” for “2012:267678).”
(§7) RNA was isolated from cells using the Reliaprep RNA Miniprep System (Promega) and purified according to kit manufacturer instructions, including a 30-minute room temperature DNase treatment. […] RNA concentration and integrity were assessed by denaturing gel electrophoresis or by spectrophotometry with a NanoDrop 2000 (ThermoFisher). […]
(§8) Quantitative PCR was performed using Quanta PerfeCTa master mix, 200 nM forward and reverse primers, and 2 μL input cDNA (serially diluted in nuclease free water 1:50 for 18S samples) in 20 μL reactions. […] Cycle thresholds (Ct) were determined using the Biorad CFX manager software. […]

[11] = test system: AR-V7, AR-V9 (EX3:CE5), AR-V1 (EX3:CE1), AR-V6 (EX3:CE2a); test: AR-V mRNA and protein expression after morpholino transfection (RT-qPCR, western blot); type: cell-based, human; conditions: FIG. 11C
Description: as §5, with “2012:267678). […]” for “2012:267678).”
as §7, §8

[12] = 22Rv1-undup3 cells transfected with 10 μM
[13] = 22Rv1 cells transfected with 10 μM

Row | Compound | nuclear localization of AR-FL [1] | expression of AR-V2, AR-V5, AR-V7, and AR-V9 mRNA [2] | AR-V7 mRNA levels [3] | growth (crystal violet) [4] | reduction in cell growth assessed by crystal violet staining ([5]; E43 cells transfected, charcoal stripped serum, plus 10 uM enzalutamide) | cell growth (crystal violet staining) ([5]; 10 μM morpholino transfected, maximum androgen blockade castration+enzalutamide) | cell growth (crystal violet staining) ([5]; transfected, androgenic conditions) | AR mRNA levels [6] | expression of full-length AR (AR-FL) [7] | expression of AR-V proteins [8] | growth (crystal violet) ([9]; androgen-deplete conditions) | growth (crystal violet) ([9]; androgen-replete conditions (1 nM DHT)) | expression of AR-FL [10, 12] | expression of AR-FL [10, 13] | mRNA and protein expression of AR-V7, AR-V9, AR-V1, AR-V6 [11, 12] | mRNA and protein expression of AR-V7, AR-V9, AR-V1, AR-V6 [11, 13]
1 | C[C@@H]1CC2=CC(=O)CC[C@@H]2[C@H]2CC[C@@]3(C)[C@@H](CC[C@]3(C)O)[C@@H]21 [mibolerone] | strong nuclear localization; also recorded: localizes to the nucleus |  |  |  |  |  |  |  |  |  |  |  |  |  |  | 
2 | CE3 pAM: 25-mer morpholino 5′-GTGTATTAATGGCTTTATTAAGGGA-3′ (SEQ ID NO:2) designed to block the AR CE3 poly A signal (all phosphorodiamidate morpholino (PMO), 3' {Fluorescein}; further chemistry not fully specified) |  | blocks; also recorded: blocked expression | reduced | reduction in growth | ~50% | blocks growth; also recorded: inhibited cell growth | not under androgenic conditions | increased | increase expression | blocks; also recorded: dramatically reduced | reduction in growth | inhibited growth | increase | increase | reduction | reduction
